The text below walks through data of ChEMBL document CHEMBL4715735, “Sesquiterpenes from Inula japonica with Inhibitory Effects on Nitric Oxide Production in Murine Macrophage RAW 264.7 Cells” (J Nat Prod, 2016).

pIC50: −log10 of the molar value.

This test has as its system RAW264.7. Description: Inhibition of LPS-induced NO production in mouse RAW264.7 cells incubated for 24 hrs by Griess reagent based assay. The test is classed as functional, cell-based. To be noted: RAW264.7, 24 h.
In the case of `C=C1C(=O)O[C@H]2C[C@H](C)[C@@H]3[C@@H](OC(C)=O)C[C@H](O)[C@@]3(C)C[C@H]12`, the pIC50 is 5.55.

Turning to `C=C1C(=O)O[C@@H]2CC(C)=C([C@@H](C)CCCOC(C)=O)[C@@H](OC(=O)C[C@H](C)CC)[C@H]12`, the pIC50 is 5.18.

Turning to `C=C1C(=O)O[C@H]2C[C@@H](C)[C@@H]3[C@H](OC(C)=O)C[C@H](O)[C@@]3(C)[C@@H](O)[C@H]12`, the negative-log IC50 (pIC50) was 4.81.

For `C=C1C(=O)O[C@@H]2C[C@H](C)C(CCC(C)=O)=CC[C@H]12` [TOMENTOSIN], the pIC50 is 5.70.

The molecule `C=C1C(=O)O[C@H]2C[C@@H](C)[C@@H]3[C@@H](OC(C)=O)C[C@H](OC(C)=O)[C@@]3(C)[C@@H](O)[C@H]12` gave a pIC50 of 5.60.

On to `C=C1C(=O)O[C@H]2C[C@@H](C)[C@@H]3CC[C@H](O)[C@@]3(C)C[C@H]12` [PSEUDOGUAIANOLIDE], for which the pIC50 is 5.60.

`COc1ccc2c(c1)c(CC(=O)O)c(C)n2C(=O)c1ccc(Cl)cc1` [INDOMETHACIN] had a pIC50 of 4.94. Against the preceding molecule, the pIC50 is 0.66 log units lower.

For `C=C1C(=O)O[C@H]2C[C@@H](C)[C@@H]3[C@@H](OC(C)=O)C[C@H](O)[C@]3(C)[C@@H](OC(C)=O)[C@H]12`, the pIC50 was 5.49. Compared with the last molecule, the pIC50 is 0.55 log units higher.
